Test results published in patent US20240366540A1, “MITOFUSIN INHIBITORS AND USES THEREOF” (Albert Einstein College of Medicine, priority 2021, published 2024).

Columns and labels:
MFN1 and MFN2 = MFN1 and MFN2 gene expression and protein levels; type: cell-based
Protocol: Western blot. Western blots were performed from whole cell lysates (WCL) prepared in lysis buffer containing 50 mM Tris-HCl pH 7.5, 1% Triton X-100, 150 mM NaCl, 5 mM MgCl2, 1 mM EGTA and 10% glycerol in the presence of protease inhibitor cocktail (Roche).
Analysis of mitochondrial biogenesis-related genes by q-PCR. Total RNA was extracted by using RNeasy Mini Kit (Qiagen) followed by cDNA synthesis using the SuperScript IV VILO Master Mix (Thermo Scientific), both performed according to the manufacturer's protocol. q-PCR was performed using the following primers: […]
For the q-PCR reaction, Power SYBR Green master mix (Thermo Scientific) was used according to the manufacturer's instructions. Briefly, each reaction consisted of 10 ng cDNA, 5 μL Power SYBR Green master mix, 200 nM primers (forward and reverse), and RNase-free water up to 10 μL. q-PCR was performed on the ViiA 7 Real-Time PCR System (Thermo Scientific) with the following cycle parameter: 95° C. for 10 min, 40 cycles of 95° C. for 15 s, and 60° C. for 1 min. q-PCR products were analyzed by melting curves for unspecific products or primer dimer formation. Rpl39 was used as housekeeping gene and 2^−ΔΔCT method was applied to determine the relative mRNAs expression.

MEFs [1] = experiment: Caspase-3/7 activation assay; type: cell-based, mouse; details: 6 hr, Caspase-Glo 3/7
Protocol: Caspase-3/7 activation assay. Cells (5×10^3 cells/well) were seeded in a 96-well white plate and treated with MASM7, MFI8. Caspase 3/7 activation was measured after 6 hr by addition of the Caspase-Glo 3/7 reagent according to the manufacturer's protocol (Promega). Luminescence was detected by a F200 PRO microplate reader (TECAN). Caspase assays were performed in at least triplicate and the data normalized to vehicle-treated control wells. Dilutions of MASM7 or MFI8 were performed using a TECAN D300e Digital Dispenser from 10 mM stocks.

[2] = system: mitochondrial biogenesis markers; experiment: Mitochondrial biogenesis markers by q-PCR; type: cell-based
Protocol: Analysis of mitochondrial biogenesis-related genes by q-PCR. Total RNA was extracted by using RNeasy Mini Kit (Qiagen) followed by cDNA synthesis using the SuperScript IV VILO Master Mix (Thermo Scientific), both performed according to the manufacturer's protocol. q-PCR was performed using the following primers: For the q-PCR reaction, Power SYBR Green master mix (Thermo Scientific) was used according to the manufacturer's instructions. […] Rpl39 was used as housekeeping gene and 2^−ΔΔCT method was applied to determine the relative mRNAs expression.

MEFs [3] = experiment: Mitochondrial respiration in cellulo (OCR, Seahorse XF24); type: cell-based, mouse; details: WT MEFs; MASM7 1 μM or MFI8 20 μM, 6 hrs
Protocol: Mitochondrial respiration in cellulo. Mitochondrial oxygen consumption rates (OCR) were assessed using a XF24 Analyzer (Seahorse Biosciences, Billerica MA, USA). In brief, 3×10^4 MEFs were cultured in a XF24 cell culture microplate containing DMEM supplemented with 10% fetal bovine serum. […] OCR was normalized to cell number or total protein content per well for each condition tested.

MEFs [4] = experiment: Mitochondrial aspect ratio (Mito AR), live cell imaging
Protocol: Live cell imaging. MEFs were seeded on chamber slides (MatTek Corporation: 35 mm dishes, No. 1.5, 14 mm glass diameter) at ˜70% confluence. […] Images were taken with Leica SP5 inverted confocal microscope. Data were analyzed with Image J software. >200 mitochondria were measured per condition in mitochondrial aspect ratio.
Measurement of mitochondrial aspect ratio (Mito AR). Images that depict stained mitochondria with mitotracker green were analyzed using FIJI We measured for each mitochondrion its length and width. Then, we divided the length by the width for each mitochondrion to get its mitochondrial aspect ratio. >200 mitochondria were measured per treatment.

MEFs [5] = experiment: DNA damage, yH2AX immunofluorescence in MEFs; type: cell-based, mouse; details: 6 h
Protocol: Immunofluorescent analysis and microscopy. […] After treatments, cells were washed with PBS and fixed with 4% PFA for 15 min. […] After incubation with primary antibodies, cells were washed with PBS and incubated with the appropriate mouse secondary antibody (ThermoFisher Scientific; A-11001) in the blocking solution. After PBS washes, coverslips were dipped in water and mounted on glass slides using Vectashield containing DAPI (Vector laboratories). […] Data were analyzed with ImageJ.

MEFs [6] = experiment: RNA-seq gene expression; type: cell-based, mouse; details: RNA-seq
Description: RNA-seq. Sequencing results were demultiplexed and converted to FASTQ format using Illumina bcl2fastq software. The sequencing reads were adapter and quality trimmed with Trimmomatic and then aligned to the mouse genome (build mm10/GRCm38) using the splice-aware STAR aligner. The featureCounts program was utilized to generate counts for each gene based on how many aligned reads overlap its exons. These counts were then normalized and used to test for differential expression using negative binomial generalized linear models implemented by the DESeq2 R package.

MEFs [7] = experiment: Mitochondrial depolarization assay (TMRE membrane potential); type: cell-based, mouse
Protocol: Mitochondrial depolarization assay (mtΔΨ). MEFs (10^4 cells/well) were seeded in a 96-well black plate and treated with MASM7 or MFI8 for 6 hrs. Following treatments, cells were stained with 250 nM TMRE (Sigma; Cat. 87917) for 20 min at 37° C. Subsequently, cells were washed with thrice with PBS. Fluorescence intensity was detected by a M100 microplate reader (TECAN, Ex: 540 nm/Em: 579 nm).

MEFs [8] = experiment: Metabolomics (TCA cycle carboxylic acids, NAD, NADH); type: cell-based, mouse
Protocol: Metabolomics. […] Cells were harvested using a cell scraper and centrifuged at 1200 rpm in 4° C. for 3 min. Each cell pellet sample was suspended into 250 to 700 μL of 80% aqueous methanol in an Eppendorf tube. The samples were vortex mixed for 15 s and sonicated in an ice-water bath for 5 min, followed by centrifugal clarification at 15,000 rpm and 5° C. in an Eppendorf […] centrifuge. The clear supernatants were collected. A standard stock solution of TCA cycle carboxylic acids, NAD and NADH was prepared in 80% methanol as S1. This standard solution S1 was serially diluted 1 to 4 (v/v) with the same solvent to make standard solutions S2 to S10. 20 μL of each standard solution and an aliquot of the clear supernatant from each cell was mixed with 20 μL of an internal standard solution containing 9 ^13C- or deuterium labeled analogues of the TCA cycle carboxylic acids (except isocitric acid), 20 μL of 200 mM 3-NPH solution and 20 μL of 150 mM of EDC solution. The mixtures were allowed to react at 30° C. for 30 min. After reaction, 120 μL of water was added to each solution. 10 μL of the resultant solutions was injected into a C18 UPLC column to quantitate the TCA cycle carboxylic acids by UPLC-MRM/MS with (-) ion detection, according to the procedure we described in a publication.

mitochondrial biomass = experiment: Mitochondrial biomass (Tomm20 protein, mitotracker green intensity, mitochondrial to nuclear DNA ratio); type: cell-based
Protocol: Western blot. Western blots were performed from whole cell lysates (WCL) prepared in lysis buffer containing 50 mM Tris-HCl pH 7.5, 1% Triton X-100, 150 mM NaCl, 5 mM MgCl2, 1 mM EGTA and 10% glycerol in the presence of protease inhibitor cocktail (Roche). WCL were separated on a 4-12% NuPAGE MES gel (Invitrogen), transferred into a PVDF membrane, block for 1 hr and immunoblot with the corresponding anti-bodies. Determination of mtDNA to genomic DNA ratio by q-PCR. DNA was extracted using DNeasy Blood and Tissue kit (Qiagen) according to the manufacturer's protocol. q-PCR was used to determine the ratio of mitochondrial DNA (mtDNA) and genomic DNA (gn DNA). The following primers were used for q-PCR reaction: […]

cells = experiment: Cell viability assay (CellTiter-Glo); type: cell-based; details: 72 hours
Protocol: Cell viability assay. […] Cell viability was assayed after 72 hrs by addition of CellTiter-Glo reagent according to the manufacturer's protocol (Promega). Luminescence was measured using a […] microplate reader (TECAN). Viability assays were performed in at least triplicate and the data normalized to vehicle-treated control wells.

[9] = MFN1/MFN2 DKO MEFs reconstituted with WT MFN2

`CC(Sc1nnc(C2CC2)n1-c1ccccc1)C(=O)Nc1sc2c(c1C(N)=O)CCC2` (stereo not shown) [MASM7, 2-(2-((5-cyclopropyl-4-phenyl-4H-1,2,4-triazol-3-yl)thio)propanamido)-5,6-dihydro-4H-cyclopenta[b]thiophene-3-carboxamide] was tested. Which “MFN1 and MFN2 gene expression and corresponding protein levels” value (MFN1 and MFN2) did it give?
Its value is “neither MASM7 nor MFI8 altered”.

What about the caspase-3/7 activity (MEFs [1]) of the same compound?
The caspase-3/7 activity was “no effect”.

And the “gene expression levels of mitochondrial biogenesis markers” value [2]?
Its value is “no alteration”.

And the “respiration and mitochondrial ATP production (OCR)” value (MEFs [3])?
The value was “increased basal and maximal respiration and mitochondrial ATP production”.

What about the mitochondrial aspect ratio (MEFs [4]; MFN1/MFN2 DKO MEFs reconstituted with D725A/L727A or L727A MFN2 mutants) of the same compound?
The mitochondrial aspect ratio was “not when reconstituted with D725A/L727A or L727A MFN2 mutants”.

And the mitochondrial aspect ratio (MEFs [4]; [9])?
Its mitochondrial aspect ratio is “markedly increased mitochondrial aspect ratio”.

And the “DNA damage (yH2AX foci)” value (MEFs [5]; MFN1/MFN2 DKO MEFs)?
Its value is “did not induce DNA damage in any of the cell lines”.

And the “DNA damage (yH2AX foci)” value (MEFs [5]; WT MEFs)?
The value was “did not induce DNA damage in any of the cell lines”.

And the “gene expression of subunits of the respiratory complexes” value (MEFs [6])?
The value was “altered expression of selected genes of the respiratory complexes rather than inducing a consistent trend”.

What about the “mitochondrial membrane potential (TMRE)” value (MEFs [7]; [9]) of the same compound?
Its value is “significantly increased mitochondrial membrane potential”.

What about the “mitochondrial membrane potential (TMRE)” value (MEFs [7]; WT MEFs, 6 hrs) of the same compound?
Its value is “concentration responsively increased mitochondrial membrane potential”.

And the “compound-induced increase in mitochondrial membrane potential” value (MEFs [7]; co-treated with myxothiazol or rotenone)?
The value was “revoked”.

What about the “total NAD+/NADH ratio” value (MEFs [8]) of the same compound?
The value was “no effect on total NAD^+/NADH ratio”.

What about the “metabolites of the TCA cycle” value (MEFs [8]; UPLC-MRM/MS) of the same compound?
Its value is “no significant effect in the majority of the metabolites of the TCA cycle”.

And the “Tomm20 protein levels, mitotracker green intensity and mitochondrial to nuclear DNA ratio” value (mitochondrial biomass)?
The value was “neither MASM7 nor MFI8 altered”.

And the cellular viability (cells)?
The cellular viability was “neither MFI8 nor MASM7 decreased cellular viability”.
